# Measurements taken from paper PMC9516332 (Frontiers in Oncology, 2022).
# Read-outs that look alike come from different tables or passages of the source.
# Legend:
# 134 cancer cell lines = assay: Cell viability assay (ATPlite, 72 hours), IC50 on cancer cell line panel
# AP-1060 (ETV6-NTRK3) = assay: Cell viability assay
structure (smiles),measurement,setting,value
O=C(Nc1cnn2ccc(N3CCC[C@@H]3c3cc(F)ccc3F)nc12)N1CC[C@H](O)C1 [larotrectinib],IC50,"134 cancer cell lines; Homo sapiens, MeWo, read-out: IC50 in cell proliferation assay, MeWo cell line",> 31.6 µM
same,IC50,"134 cancer cell lines; Homo sapiens, NCCIT, read-out: IC50 in cell proliferation assay, NCC-IT cell line",> 31.6 µM
same,IC50,"134 cancer cell lines; Homo sapiens, NCI-H82, read-out: IC50 in cell proliferation assay, cell line NCI-H82",> 31.6 µM
same,IC50,"134 cancer cell lines; Homo sapiens, NCI-H460, read-out: IC50 in cell proliferation assay, NCI-H460 cell line",> 31.6 µM
same,IC50,"134 cancer cell lines; Homo sapiens, NCI-H661, read-out: IC50 in cell proliferation assay, NCI-H661 cell line",> 31.6 µM
same,IC50,"134 cancer cell lines; Homo sapiens, NCI-H716, read-out: IC50 in cell proliferation assay, cell line NCI-H716 (FGFR2-COL14A1)",> 31.6 µM
same,IC50,"134 cancer cell lines; Homo sapiens, NCI-H1650, read-out: IC50 in cell proliferation assay, NCI-H1650 cell line (EGFR exon19del)",> 31.6 µM
same,IC50,"134 cancer cell lines; Homo sapiens, NCI-H1975, read-out: IC50 in cell proliferation assay, NCI-H1975 cell line (EGFR p.L858R + p.T790M)",> 31.6 µM
same,IC50,"134 cancer cell lines; Homo sapiens, NCI-H2228, read-out: IC50 in cell proliferation assay, NCI-H2228 cell line (EML4-ALK)",> 31.6 µM
same,IC50,"134 cancer cell lines; Homo sapiens, OVCAR-3, read-out: IC50 in cell proliferation assay, cell line OVCAR-3",> 31.6 µM
same,IC50,"134 cancer cell lines; Homo sapiens, PFSK-1, read-out: IC50 in cell proliferation assay, cell line PFSK-1",> 31.6 µM
same,IC50,"134 cancer cell lines; Homo sapiens, RL95-2, read-out: IC50 in cell proliferation assay, cell line RL95-2 (EGFR p.A289V)",> 31.6 µM
same,IC50,"134 cancer cell lines; Homo sapiens, RPMI-7951, read-out: IC50 in cell proliferation assay, cell line RPMI-7951 (BRAF p.V600E)",> 31.6 µM
same,IC50,"134 cancer cell lines; Homo sapiens, RS4-11, read-out: IC50 in cell proliferation assay, cell line RS4;11",> 31.6 µM
same,IC50,"134 cancer cell lines; Homo sapiens, Rec1, read-out: IC50 in cell proliferation assay, cell line REC-1",> 31.6 µM
same,IC50,"134 cancer cell lines; Homo sapiens, SHP77, read-out: IC50 in cell proliferation assay, cell line SHP-77",> 31.6 µM
same,IC50,"134 cancer cell lines; Homo sapiens, SK-BR-3, read-out: IC50 in cell proliferation assay, cell line SK-BR-3 (ERBB2 amplification)",> 31.6 µM
same,IC50,"134 cancer cell lines; Homo sapiens, SK-N-AS, read-out: IC50 in cell proliferation assay, cell line SK-N-AS",> 31.6 µM
same,IC50,"134 cancer cell lines; Homo sapiens, SK-N-FI, read-out: IC50 in cell proliferation assay, cell line SK-N-FI",> 31.6 µM
same,IC50,"134 cancer cell lines; Homo sapiens, SK-N-MC, read-out: IC50 in cell proliferation assay, cell line SK-N-MC",> 31.6 µM
same,IC50,"134 cancer cell lines; Homo sapiens, SK-N-SH, read-out: IC50 in cell proliferation assay, cell line SK-N-SH (ALK p.F1174L)",> 31.6 µM
same,IC50,"134 cancer cell lines; Homo sapiens, SNU-5, read-out: IC50 in cell proliferation assay, cell line SNU-5 (MET amplification)",> 31.6 µM
same,IC50,"134 cancer cell lines; Homo sapiens, SNU-16, read-out: IC50 in cell proliferation assay, cell line SNU-16 (FGFR2 amplification)",> 31.6 µM
same,IC50,"134 cancer cell lines; Homo sapiens, SNU-C2B, read-out: IC50 in cell proliferation assay, cell line SNU-C2B (EGFR p.R165Q)",> 31.6 µM
same,IC50,"134 cancer cell lines; Homo sapiens, SU-DHL-1, read-out: IC50 in cell proliferation assay, cell line SU-DHL-1 (NPM1-ALK)",> 31.6 µM
same,IC50,"134 cancer cell lines; Homo sapiens, SU-DHL-6, read-out: IC50 in cell proliferation assay, cell line SU-DHL-6",> 31.6 µM
same,IC50,"134 cancer cell lines; Homo sapiens, SUP-T1, read-out: IC50 in cell proliferation assay, cell line SUP-T1",> 31.6 µM
same,IC50,"134 cancer cell lines; Homo sapiens, SW48, read-out: IC50 in cell proliferation assay, cell line SW48 (EGFR p.G719S)",> 31.6 µM
same,IC50,"134 cancer cell lines; Homo sapiens, SW480, read-out: IC50 in cell proliferation assay, cell line SW480",> 31.6 µM
same,IC50,"134 cancer cell lines; Homo sapiens, SW626, read-out: IC50 in cell proliferation assay, cell line SW626",> 31.6 µM
same,IC50,"134 cancer cell lines; Homo sapiens, SW780, read-out: IC50 in cell proliferation assay, cell line SW780 (FGFR3-BAIAP2L1)",> 31.6 µM
same,IC50,"134 cancer cell lines; Homo sapiens, SW837, read-out: IC50 in cell proliferation assay, cell line SW837",> 31.6 µM
same,IC50,"134 cancer cell lines; Homo sapiens, SW872, read-out: IC50 in cell proliferation assay, cell line SW872 (BRAF p.V600E)",> 31.6 µM
same,IC50,"134 cancer cell lines; Homo sapiens, SW900, read-out: IC50 in cell proliferation assay, cell line SW900",> 31.6 µM
same,IC50,"134 cancer cell lines; Homo sapiens, SW948, read-out: IC50 in cell proliferation assay, cell line SW948",> 31.6 µM
same,IC50,"134 cancer cell lines; Homo sapiens, SW982, read-out: IC50 in cell proliferation assay, cell line SW982 (BRAF p.V600E)",> 31.6 µM
same,IC50,"134 cancer cell lines; Homo sapiens, SW-620, read-out: IC50 in cell proliferation assay, cell line SW620",> 31.6 µM
same,IC50,"134 cancer cell lines; Homo sapiens, T98G, read-out: IC50 in cell proliferation assay, cell line T98G",> 31.6 µM
same,IC50,"134 cancer cell lines; Homo sapiens, TCC-SUP, read-out: IC50 in cell proliferation assay, cell line TCCSUP",> 31.6 µM
same,IC50,"134 cancer cell lines; Homo sapiens, THP-1, read-out: IC50 in cell proliferation assay, cell line THP-1",> 31.6 µM
same,IC50,"134 cancer cell lines; Homo sapiens, U2OS, read-out: IC50 in cell proliferation assay, cell line U2OS",> 31.6 µM
same,IC50,"134 cancer cell lines; Homo sapiens, U-87 MG, read-out: IC50 in cell proliferation assay, cell line U-87MG ATCC",> 31.6 µM
same,IC50,"134 cancer cell lines; Homo sapiens, U-118-MG, read-out: IC50 in cell proliferation assay, cell line U-118MG",> 31.6 µM
same,IC50,"134 cancer cell lines; Homo sapiens, UMUC3, read-out: IC50 in cell proliferation assay, cell line UM-UC-3",> 31.6 µM
same,IC50,"134 cancer cell lines; Hs766T, read-out: IC50 in cell proliferation assay, Hs 766T cell line",> 31.6 µM
same,IC50,"134 cancer cell lines; L-82, read-out: IC50 in cell proliferation assay, L-82 cell line (NPM1-ALK)",> 31.6 µM
same,IC50,"134 cancer cell lines; Rh30, read-out: IC50 in cell proliferation assay, cell line Rh30",> 31.6 µM
same,IC50,"134 cancer cell lines; read-out: IC50 in cell proliferation assay, 11-18 cell line (EGFR p.L858R)",> 31.6 µM
same,IC50,"134 cancer cell lines; read-out: IC50 in cell proliferation assay, Hs 852.T cell line",> 31.6 µM
same,IC50,"134 cancer cell lines; read-out: IC50 in cell proliferation assay, JAR cell line",> 31.6 µM
same,IC50,"134 cancer cell lines; read-out: IC50 in cell proliferation assay, cell line 5637",> 31.6 µM
same,IC50,"134 cancer cell lines; read-out: IC50 in cell proliferation assay, cell line A-388",> 31.6 µM
same,IC50,"134 cancer cell lines; read-out: IC50 in cell proliferation assay, cell line DB",> 31.6 µM
same,IC50,"134 cancer cell lines; read-out: IC50 in cell proliferation assay, cell line DEL (NPM1-ALK)",> 31.6 µM
same,IC50,"134 cancer cell lines; read-out: IC50 in cell proliferation assay, cell line ES-2 (BRAF p.V600E)",> 31.6 µM
same,IC50,"134 cancer cell lines; read-out: IC50 in cell proliferation assay, cell line PA-1",> 31.6 µM
same,IC50,"134 cancer cell lines; read-out: IC50 in cell proliferation assay, cell line PC-3",> 31.6 µM
same,IC50,"134 cancer cell lines; read-out: IC50 in cell proliferation assay, cell line RD",> 31.6 µM
same,IC50,"134 cancer cell lines; read-out: IC50 in cell proliferation assay, cell line RKO (BRAF p.V600E)",> 31.6 µM
same,IC50,"134 cancer cell lines; read-out: IC50 in cell proliferation assay, cell line RL",> 31.6 µM
same,IC50,"134 cancer cell lines; read-out: IC50 in cell proliferation assay, cell line RT-4 (FGFR3-TACC3)",> 31.6 µM
same,IC50,"134 cancer cell lines; read-out: IC50 in cell proliferation assay, cell line SR (NPM1-ALK)",> 31.6 µM
same,IC50,"134 cancer cell lines; read-out: IC50 in cell proliferation assay, cell line T24",> 31.6 µM
same,IC50,"134 cancer cell lines; read-out: IC50 in cell proliferation assay, cell line TT (RET p.C634W)",> 31.6 µM
same,IC50,"134 cancer cell lines; read-out: IC50 in cell proliferation assay, cell line VA-ES-BJ",> 31.6 µM
same,potency in AP-1060 compared to entrectinib,AP-1060 (ETV6-NTRK3); cell viability,around four-fold more potent
same,IC50,AP-1060 (ETV6-NTRK3); read-out: IC50 in cell proliferation assay,0.009 µM
